Measurements: patent US11840686B2, “Modulation of prekallikrein (PKK) expression” (Ionis Pharmaceuticals, Inc., priority 2013, dated 2023)
Strand notation (5' to 3'): a small letter for the sugar, then the base; units joined by * are phosphorothioate-linked, units joined directly phosphodiester-linked; [ ] holds rarer units or linkages, { } end groups; capitals alone tell only the bases. e = 2'-O-(2-methoxyethyl) (MOE); k = constrained ethyl (cEt); [5mC] = 5-methylcytosine; d = 2'-deoxy (DNA)

Test system: human PKK mRNA
Test: Antisense inhibition of human PKK mRNA in HepaRG cells, 1,000 nM, MOE/deoxy/cEt oligonucleotides (Example 3)
Type: cell-based
Procedure, shortened: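 HepaRG cells at 20,000 per well electroporated with 1,000 nM 16-mer MOE/cEt/deoxy gapmers (phosphorothioate, 5-methylcytosine). After about 24 h, PKK mRNA measured by qRT-PCR with primer probe set RTS3454, normalized to RIBOGREEN total RNA. Reported as percent inhibition versus untreated cells.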

[1] = HepaRG cells, electroporation with 1,000 nM antisense oligonucleotide, approximately 24 hours, primer probe set RTS3454, relative to untreated control cells, experiment of Table 24
[2] = Table 19, HepaRG cells, electroporation with 1,000 nM antisense oligonucleotide, approximately 24 hours, PKK mRNA by RT-PCR (RTS3454), relative to untreated control cells
[3] = Table 30, human PKK mRNA, HepaRG cells, 1,000 nM antisense oligonucleotide
[4] = Table 21 experiment, HepaRG cells, electroporation with 1,000 nM antisense oligonucleotide, approx. 24 hours, PKK mRNA by RT-PCR (RTS3454), relative to untreated control cells
[5] = HepaRG cells, electroporation with 1,000 nM antisense oligonucleotide, approximately 24 hours, primer probe set RTS3454, relative to untreated control cells, experiment of Table 23
[6] = PKK mRNA, HepaRG cells, 1,000 nM antisense oligonucleotide, Table 31
[7] = HepaRG cells, 1,000 nM antisense oligonucleotide, Table 29
[8] = Table 27, HepaRG cells, 1,000 nM antisense oligonucleotide, human PKK mRNA
[9] = HepaRG cells, electroporation with 1,000 nM antisense oligonucleotide, approx. 24 hours, PKK mRNA by RT-PCR (RTS3454), relative to untreated control cells, Table 26 experiment
[10] = Table 22 experiment, HepaRG cells, electroporation with 1,000 nM antisense oligonucleotide, approx. 24 hours, PKK mRNA by RT-PCR (RTS3454), relative to untreated control cells
[11] = Table 28, HepaRG cells, 1,000 nM antisense oligonucleotide, human PKK mRNA

548032 (eA*eG*kA*dT*dG*d[5mC]*dG*d[5mC]*d[5mC]*dA*dA*dA*d[5mC]*kA*kT*e[5mC]; antisense) [compound 548032]
% inhibition [1]: 51%

548139 (eA*eG*kA*dT*dG*dA*dG*dG*dA*d[5mC]*d[5mC]*d[5mC]*d[5mC]*k[5mC]*k[5mC]*eA; antisense) [compound 548139]
% inhibition [2]: 56%

548406 (eT*e[5mC]*kT*dA*dG*dA*dG*dG*d[5mC]*d[5mC]*dG*d[5mC]*d[5mC]*kT*kG*e[5mC]; antisense) [compound 548406]
% inhibition [3]: 0%

547791 (antisense eA*e[5mC]*kT*dG*dT*dA*dG*d[5mC]*dA*dA*dA*d[5mC]*dA*kA*kG*eG) [compound 547791]
% inhibition [4]: 49%

548384 (e[5mC]*eT*k[5mC]*dA*d[5mC]*d[5mC]*dG*dG*dT*dA*d[5mC]*dT*d[5mC]*kT*kG*e[5mC]; antisense) [compound 548384]
% inhibition [3]: 49%

547961 (eT*eT*kG*d[5mC]*dA*dG*dG*dT*dT*dA*dA*dA*dA*kG*kG*e[5mC]; antisense) [compound 547961]
% inhibition [5]: 5%

547817 (eT*eG*kA*dA*d[5mC]*dT*dT*dG*d[5mC]*dT*dG*dG*dA*kA*kG*eA; antisense) [compound 547817]
% inhibition [4]: 18%

548659 (antisense e[5mC]*e[5mC]*kA*dA*d[5mC]*d[5mC]*dT*d[5mC]*dT*dA*dA*dG*dG*k[5mC]*kT*eA) [compound 548659]
% inhibition [6]: 17%

547836 (eT*e[5mC]*k[5mC]*dA*dG*dA*dA*dA*d[5mC]*dT*dG*d[5mC]*dA*k[5mC]*k[5mC]*eT; antisense) [compound 547836]
% inhibition [4]: 50%

548574 (eG*eG*kT*d[5mC]*dT*dA*dA*d[5mC]*dT*d[5mC]*dT*dA*dA*kG*kG*eG; antisense) [compound 548574]
% inhibition [7]: 0%

548554 (antisense eG*eT*kG*d[5mC]*dT*dG*d[5mC]*dA*dT*dT*dG*d[5mC]*dA*kT*kG*eA) [compound 548554]
% inhibition [7]: 42%

548326 (eT*e[5mC]*k[5mC]*dT*dG*dT*dG*dA*d[5mC]*dA*dG*dA*dA*k[5mC]*k[5mC]*eA; antisense) [compound 548326]
% inhibition [8]: 27%

548264 (antisense e[5mC]*eA*kG*dT*d[5mC]*d[5mC]*dA*dA*dA*dA*dA*dT*d[5mC]*k[5mC]*k[5mC]*eT) [compound 548264]
% inhibition [9]: 60%

548446 (antisense eT*e[5mC]*k[5mC]*dT*dA*dT*dG*dT*d[5mC]*dA*d[5mC]*dT*dG*kT*kA*e[5mC]) [compound 548446]
% inhibition [3]: 16%

548620 (antisense eT*eG*kG*dT*dT*dG*dG*dT*dG*dG*d[5mC]*dG*dG*kG*kA*eT) [compound 548620]
% inhibition [6]: 24%

547845 (antisense e[5mC]*eG*kA*dT*dG*dG*d[5mC]*dA*dA*dG*d[5mC]*dA*d[5mC]*kT*kT*eA) [compound 547845]
% inhibition (Table 20, HepaRG cells, electroporation with 1,000 nM antisense oligonucleotide, approximately 24 hours, PKK mRNA by RT-PCR (RTS3454), relative to untreated control cells): 0% | % inhibition [10]: 64%

548512 (antisense eT*e[5mC]*k[5mC]*dG*d[5mC]*d[5mC]*dT*dT*dT*dG*dG*dA*dT*kA*k[5mC]*eT) [compound 548512]
% inhibition [11]: 49%

548475 (eA*eT*k[5mC]*dG*dA*dG*dT*d[5mC]*d[5mC]*dT*dG*d[5mC]*d[5mC]*kT*k[5mC]*e[5mC]; antisense) [compound 548475]
% inhibition [11]: 17%

548337 (antisense eT*eA*k[5mC]*d[5mC]*dG*d[5mC]*dT*dG*dG*dG*dT*dG*d[5mC]*kG*kG*eT) [compound 548337]
% inhibition [8]: 10%

547974 (antisense eA*eA*kA*dG*dT*d[5mC]*dA*dA*d[5mC]*dT*d[5mC]*d[5mC]*d[5mC]*kG*kG*eG) [compound 547974]
% inhibition [5]: 52%

548539 (antisense e[5mC]*eG*k[5mC]*dG*d[5mC]*dG*dA*dA*dT*dG*d[5mC]*d[5mC]*dT*kG*k[5mC]*e[5mC]) [compound 548539]
% inhibition [7]: 41%

548116 (antisense eT*e[5mC]*kA*dT*dG*d[5mC]*dT*dG*dG*dT*dG*dA*d[5mC]*kT*kG*e[5mC]) [compound 548116]
% inhibition [2]: 3%

547951 (eA*eG*kA*dT*dA*dT*dG*dG*dT*dG*dT*dT*dT*kT*k[5mC]*eT; antisense) [compound 547951]
% inhibition [5]: 25%

548266 (antisense eT*eT*kG*dG*d[5mC]*d[5mC]*dA*dA*d[5mC]*dT*d[5mC]*dT*dG*kT*kG*eG) [compound 548266]
% inhibition [9]: 44%

548686 (antisense eA*e[5mC]*kG*dA*d[5mC]*dA*dA*dT*dG*dG*dG*dA*dT*kT*k[5mC]*eA) [compound 548686]
% inhibition [6]: 0%

548654 (antisense eA*e[5mC]*k[5mC]*dA*dT*dT*d[5mC]*d[5mC]*dT*dG*dA*d[5mC]*d[5mC]*kA*kT*eG) [compound 548654]
% inhibition [6]: 34%

548411 (antisense e[5mC]*eA*kG*dT*dA*dT*d[5mC]*dA*d[5mC]*dT*dG*dT*dA*k[5mC]*kT*eA) [compound 548411]
% inhibition [3]: 72%

547939 (eT*eT*kT*dG*dT*dG*dA*d[5mC]*dT*d[5mC]*dG*dA*dT*kT*kT*eT; antisense) [compound 547939]
% inhibition [5]: 70%

547785 (antisense eG*eT*kT*dG*d[5mC]*dT*dT*dG*d[5mC]*dT*dT*dG*dA*kA*kT*eA) [compound 547785]
% inhibition [4]: 48%

547822 (eG*e[5mC]*kA*dA*d[5mC]*d[5mC]*dA*dA*dA*d[5mC]*d[5mC]*dT*dT*kT*kT*e[5mC]; antisense) [compound 547822]
% inhibition [4]: 71%

547959 (eG*e[5mC]*kA*dG*dG*dT*dT*dA*dA*dA*dA*dG*dG*k[5mC]*kT*eA; antisense) [compound 547959]
% inhibition [5]: 60%

548290 (eG*eA*kG*d[5mC]*dA*d[5mC]*dT*d[5mC]*dT*dT*dA*dT*dT*kA*kG*e[5mC]; antisense) [compound 548290]
% inhibition [9]: 31%

548626 (antisense eG*e[5mC]*kA*dG*dT*dA*dT*dG*dT*dT*d[5mC]*dA*dA*kT*k[5mC]*e[5mC]) [compound 548626]
% inhibition [6]: 36%

548314 (eA*e[5mC]*kA*dA*d[5mC]*d[5mC]*dT*dG*dT*d[5mC]*d[5mC]*dA*dT*kT*k[5mC]*e[5mC]; antisense) [compound 548314]
% inhibition [8]: 43%

547973 (antisense eA*eA*kG*dT*d[5mC]*dA*dA*d[5mC]*dT*d[5mC]*d[5mC]*d[5mC]*dG*kG*kG*eT) [compound 547973]
% inhibition [5]: 62%

548401 (eG*e[5mC]*k[5mC]*dA*dG*d[5mC]*dT*dA*dT*dG*dG*dG*dA*kA*k[5mC]*eA; antisense) [compound 548401]
% inhibition [3]: 71%

548051 (eA*eA*kG*dG*d[5mC]*dG*dA*dT*dA*dT*d[5mC]*dA*dT*kG*kA*eT; antisense) [compound 548051]
% inhibition [1]: 61%

548045 (eT*eT*kA*dT*dA*dG*dT*dT*dT*dT*dG*dG*dT*kG*kA*eA; antisense) [compound 548045]
% inhibition [1]: 0%

548540 (antisense eG*eA*k[5mC]*dA*d[5mC]*d[5mC]*dT*dG*d[5mC]*dT*dT*dG*dA*kT*kT*eA) [compound 548540]
% inhibition [7]: 7%

548356 (antisense eT*eG*kT*dT*dG*dG*dT*d[5mC]*dA*dG*d[5mC]*dA*dT*kT*k[5mC]*eA) [compound 548356]
% inhibition [8]: 63%

548413 (antisense e[5mC]*eT*kA*dA*d[5mC]*dA*dG*dT*dA*dT*d[5mC]*dA*d[5mC]*kT*kG*eT) [compound 548413]
% inhibition [3]: 55%

548678 (antisense eG*eA*kG*dT*dT*dA*d[5mC]*d[5mC]*dT*dT*dA*d[5mC]*dA*kA*kG*e[5mC]) [compound 548678]
% inhibition [6]: 22%

548575 (eT*eG*kT*d[5mC]*d[5mC]*dT*dT*dT*dA*dA*dA*dG*dT*kA*kT*e[5mC]; antisense) [compound 548575]
% inhibition [7]: 18%

548463 (eT*e[5mC]*kA*d[5mC]*dT*dG*dT*dA*d[5mC]*d[5mC]*dT*dA*dT*kA*kT*e[5mC]; antisense) [compound 548463]
% inhibition [11]: 0%

548272 (antisense eG*eG*kT*dG*d[5mC]*d[5mC]*dA*d[5mC]*dT*dT*dG*d[5mC]*dT*kT*kG*eG) [compound 548272]
% inhibition [9]: 54%

548407 (e[5mC]*e[5mC]*kT*dA*dT*dA*dA*d[5mC]*dT*dG*d[5mC]*dT*dG*k[5mC]*kT*e[5mC]; antisense) [compound 548407]
% inhibition [3]: 24%

548296 (eA*e[5mC]*k[5mC]*dA*dA*d[5mC]*dA*dA*d[5mC]*dT*d[5mC]*dA*dG*kG*k[5mC]*e[5mC]; antisense) [compound 548296]
% inhibition [9]: 34%

547897 (eA*eT*kA*dG*dG*d[5mC]*dA*dA*dT*dT*dG*dT*dT*k[5mC]*k[5mC]*eG; antisense) [compound 547897]
% inhibition [10]: 82%
